Measured values reported in patent US12259388B2, “Cofilin phosphorylation for quantifying CD4 T cell damage and predict CD4 T cell recovery from anti-retroviral therapy” (VIRONGY L.L.C., priority 2018, dated 2025).

Assays:
HIV-1 = details: cited from earlier work
[1] = test system: cofilin, LIMK in resting CD4 T cells; details: cited from earlier work; for effect on cofilin activation / phosphorylation: resting CD4 T cells
[2] = test system: cofilin phosphorylation in A3R5.7 CD4 T cells; assay: Western blot for p-cofilin and cofilin after R10015 treatment; type: cell-based, human
Description: (§1) FIG. 3. Quantification of effects of cofilin hyperactivation on T cell migration. (A) A3R5.7 T cells were treated with different dosages of R10015 for one hour. Phospho-cofilin and total cofilin were quantified by Western blot. (B) The relative ratio of p-cofilin/cofilin in response to R10015 treatment was plotted (n=4 independent experiments). (C) R10015 inhibits cofilin phosphorylation and T cell chemotaxis in response to CXCL12. A3R5.7 cells were treated with different dosages of R10015 for one hour, and then added to the upper chamber of a 24-well transwell plate. The lower chamber was filled with CXCL12 (40 ng/ml), and cell migration to the lower chamber was quantified (n=3 independent experiments). (D) The linear correlation between T cell migration and levels of cofilin phosphorylation. The X-axis is the relative ratio of p-cofilin/cofilin derived from (B); the Y-axis is the number of migrating cells derived from (C).
(§2) T cell migration is controlled by cycles of cofilin phosphorylation and dephosphorylation, which are regulated by the LIM-domain kinase (LIMK) through serine 3 phosphorylation (27, 54). To quantify the direct effect of cofilin hyperactivation on T cell migration, we used a recently discovered LIMK inhibitor, R10015 (55), to block cofilin phosphorylation in A3R5.7 CD4 T cells. We then performed CXCL12-induced T cell chemotaxis in the presence of cofilin hyperactivation. […]

A3R5.7 CD4 T cells = assay: CXCL12-induced T cell chemotaxis (transwell) assay; type: cell-based, human; details: CXCL12 40 ng/ml
Description: as §1, with “(D) The linear correlation between T cell migration and levels of cofilin phosphorylation. The X-axis is the relative ratio of p-cofilin/cofilin derived from (B); the Y-axis is the number of migrating cells derived from (C).” left out
as §2, with “cells.” for “cells. We then performed CXCL12-induced T cell chemotaxis in the presence of cofilin hyperactivation.”
A half million cells were resuspended into 100 μl RPMI-1640 medium and then added to the upper chamber of a 24-well transwell plate (Corning, Corning, NY). […] The plate was incubated at 37° C. for 2 hours, and then the upper chamber was removed and cells in the lower chamber were counted. […]

Molecule | effect on HIV latent infection of resting CD4 T cells (HIV-1) | effect on cofilin activation / phosphorylation [1] | effect on LIMK ([1]; transient treatment of resting CD4 T cells) | inhibition of cofilin phosphorylation ([2]; A3R5.7 CD4 T cells, different dosages of R10015 for one hour, ratio p-cofilin/cofilin) | cofilin phosphorylation reduced to ([2]; at around 15 M of R10015, A3R5.7 cells, one hour) | decrease in cell migration (A3R5.7 CD4 T cells; A3R5.7 CD4 T cells, at 50% reduction in cofilin phosphorylation) | T cell chemotaxis in response to CXCL12 (A3R5.7 CD4 T cells; A3R5.7 cells treated one hour)
pertussis toxin | inhibits | inhibits cofilin activation | – | – | – | – | –
CN[C@@H]1C[C@H]2O[C@@](C)([C@@H]1OC)n1c3ccccc3c3c4c(c5c6ccccc6n2c5c31)C(=O)NC4 [staurosporine] | enhances HIV latent infection | induce gradual cofilin activation | – | – | – | – | –
C=C1[C@@H](O)[C@@H]2O[C@]3(CC[C@H](/C=C/[C@@H](C)[C@@H]4CC(C)=C[C@@]5(O[C@H](C[C@@](C)(O)C(=O)O)CC[C@H]5O)O4)O3)CC[C@H]2O[C@@H]1[C@@H](O)C[C@H](C)[C@H]1O[C@@]2(CCCCO2)CC[C@H]1C [okadaic acid] | promotes HIV latent infection | increase cofilin phosphorylation | activates LIMK | – | – | – | –
COC(=O)c1ccc2nc(C3CCN(c4ncnc5[nH]cc(Cl)c45)CC3)[nH]c2c1 [R10015] | – | – | – | dosage-dependent inhibition of cofilin phosphorylation | around 50% | 20-40% | inhibits
